According to PubChem BioAssay (NCI):
Where “and” joins values, the source holds several entries; their conditions need not be identical. Equal values may be shown once.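 Method: 48-hour compound exposure of cells in 96-well plates, five concentrations, linear interpolation of endpoints. GI50 is the concentration that inhibits growth by half. TGI marks complete inhibition of growth.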

Experiments:
Assay in all cases: growth of human tumour cells (NCI), 48 h
HCC-2998 colon = tested on: HCC-2998 colon
HT29 colon = tested on: HT29 colon
OVCAR-5 ovarian = tested on: OVCAR-5 ovarian
SF-295 CNS = tested on: SF-295 CNS
SF-539 CNS = tested on: SF-539 CNS
SK-MEL-5 melanoma = tested on: SK-MEL-5 melanoma
SN12C renal = tested on: SN12C renal
T-47D breast = tested on: T-47D breast
TK-10 renal = tested on: TK-10 renal
UACC-62 melanoma = tested on: UACC-62 melanoma

## Cc1nn(-c2ccc(Cl)cc2)c2ncnc(N/N=C/c3ccccc3O)c12
HCC-2998 colon
  GI50: 0.464 µM and 0.742 µM
  TGI: > 100 µM
HT29 colon
  GI50: 2.43 µM and 1.62 µM
  TGI: > 100 µM
OVCAR-5 ovarian
  GI50: 4.16 µM and 2.34 µM
  TGI: > 100 µM
SF-295 CNS
  GI50: 0.841 µM and 1.12 µM
  TGI: 9.93 µM and 24.4 µM
SF-539 CNS
  GI50: 0.484 µM and 0.455 µM
  TGI: 11.5 µM and 5.99 µM
SK-MEL-5 melanoma
  GI50: 0.728 µM and 0.509 µM
  TGI: 2.45 µM and 1.47 µM
SN12C renal
  GI50: 0.804 µM and 0.473 µM
  TGI: > 91.7 µM
T-47D breast
  GI50: 2.09 µM and 0.89 µM
  TGI: > 100 µM and 23.5 µM
TK-10 renal
  GI50: 2.33 µM and 1.86 µM
  TGI: 63.4 µM and > 100 µM
UACC-62 melanoma
  GI50: 1.6 µM and 0.91 µM
  TGI: 19.9 µM and 6.95 µM

## CC(=O)ON1CCCC(P(=O)(OCOC(=O)C(C)(C)C)OCOC(=O)C(C)(C)C)C1=O (stereo unspecified)
HCC-2998 colon
  GI50: 0.803 µM
  TGI: 3.5 µM
HT29 colon
  GI50: 0.305 µM
  TGI: 3.68 µM
OVCAR-5 ovarian
  GI50: 1.94 µM
  TGI: 20.3 µM
SF-295 CNS
  GI50: 2.37 µM
  TGI: 29 µM
SF-539 CNS
  GI50: 1.11 µM
  TGI: 5.8 µM
SK-MEL-5 melanoma
  GI50: 0.773 µM
  TGI: 3.04 µM
SN12C renal
  GI50: 0.314 µM
  TGI: 2.38 µM
T-47D breast
  GI50: 0.435 µM
  TGI: 7.5 µM
TK-10 renal
  GI50: 0.977 µM
  TGI: 6.89 µM
UACC-62 melanoma
  GI50: 0.405 µM
  TGI: 1.74 µM

## CC(C)(CO)CNC(=O)c1ccc2[nH]c(O)c(N=Nc3ccc(S(N)(=O)=O)cc3)c2c1
HCC-2998 colon
  GI50: > 25 µM
  TGI: > 25 µM
HT29 colon
  GI50: > 25 µM
  TGI: > 25 µM
OVCAR-5 ovarian
  GI50: > 25 µM
  TGI: > 25 µM
SF-295 CNS
  GI50: > 25 µM
  TGI: > 25 µM
SF-539 CNS
  GI50: > 25 µM
  TGI: > 25 µM
SK-MEL-5 melanoma
  GI50: > 25 µM
  TGI: > 25 µM
SN12C renal
  GI50: > 25 µM
  TGI: > 25 µM
T-47D breast
  GI50: > 25 µM
  TGI: > 25 µM
TK-10 renal
  GI50: > 25 µM
  TGI: > 25 µM
UACC-62 melanoma
  GI50: > 25 µM
  TGI: > 25 µM

## O=C(/C=C/C12c3ccccc3C(c3ccccc31)C1C(=O)NC(=O)C12)c1ccccn1 (stereo unspecified)
HCC-2998 colon
  GI50: 1.88 µM
  TGI: 3.51 µM
HT29 colon
  GI50: 1.86 µM
  TGI: 4.56 µM
OVCAR-5 ovarian
  GI50: 2.04 µM
  TGI: 4.54 µM
SF-295 CNS
  GI50: 1.61 µM
  TGI: 3.49 µM
SF-539 CNS
  GI50: 2.04 µM
  TGI: 4.65 µM
SK-MEL-5 melanoma
  GI50: 1.7 µM
  TGI: 3.2 µM
SN12C renal
  GI50: 1.48 µM
  TGI: 3.44 µM
T-47D breast
  GI50: 1.73 µM
  TGI: 5.26 µM
TK-10 renal
  GI50: 2.35 µM
  TGI: 5.31 µM
UACC-62 melanoma
  GI50: 1.62 µM
  TGI: 3.1 µM

## COc1ccc(OC)c(NCC(=O)n2nc(/C=C\c3ccc(O)c(OC)c3)cc2/C=C\c2ccc(O)c(OC)c2)c1
HCC-2998 colon
  GI50: 2.04 µM
  TGI: 3.98 µM
HT29 colon
  GI50: 1.73 µM
  TGI: 3.81 µM
OVCAR-5 ovarian
  GI50: 2.35 µM
  TGI: 5.54 µM
SF-295 CNS
  GI50: 2.44 µM
  TGI: 6.08 µM
SF-539 CNS
  GI50: 1.74 µM
  TGI: 6.15 µM
SK-MEL-5 melanoma
  GI50: 1.66 µM
  TGI: 4.91 µM
SN12C renal
  GI50: 2.52 µM
  TGI: > 100 µM
T-47D breast
  GI50: 3.05 µM
  TGI: 14.6 µM
TK-10 renal
  GI50: 4.66 µM
  TGI: 30.1 µM
UACC-62 melanoma
  GI50: 1.56 µM
  TGI: 4.72 µM

## COC(=O)OC1C(O[C@H]2C[C@H]3[C@@H]4CC=C5C[C@@H](O)CC[C@]5(C)[C@H]4CC[C@]3(C)[C@H]2[C@H](C)C(=O)CCC(C)C)OCC(O)C1OC1OCC(O)C(O)C1OC(=O)c1ccc(OC)cc1 (stereo partly specified)
HCC-2998 colon
  GI50: 1.44 µM
  TGI: > 27.5 µM
HT29 colon
  GI50: 0.0415 µM
  TGI: > 27.5 µM
OVCAR-5 ovarian
  GI50: 0.0982 µM
  TGI: 2.63 µM
SF-295 CNS
  GI50: < 0.00275 µM
  TGI: < 0.00275 µM
SF-539 CNS
  GI50: < 0.00275 µM
  TGI: 0.0091 µM
SK-MEL-5 melanoma
  GI50: 0.014 µM
  TGI: 0.279 µM
SN12C renal
  GI50: 1.46 µM
  TGI: > 27.5 µM
T-47D breast
  GI50: 0.0209 µM
  TGI: 0.647 µM
TK-10 renal
  GI50: 0.496 µM
  TGI: 17.5 µM
UACC-62 melanoma
  GI50: 0.00621 µM
  TGI: 0.0158 µM

## CC1(C)OC[C@@H]([C@@]2(CO[Si](c3ccccc3)(c3ccccc3)C(C)(C)C)CC=CC(=O)O2)O1
HCC-2998 colon
  GI50: 13.7 µM
  TGI: 28.9 µM
HT29 colon
  GI50: 7.97 µM
  TGI: > 100 µM
OVCAR-5 ovarian
  GI50: 16.7 µM
  TGI: 49.6 µM
SF-295 CNS
  GI50: 5.43 µM
  TGI: 25.9 µM
SF-539 CNS
  GI50: 3.68 µM
  TGI: 9.82 µM
SK-MEL-5 melanoma
  GI50: 4.65 µM
  TGI: 19.4 µM
SN12C renal
  GI50: 5.39 µM
  TGI: 35.9 µM
T-47D breast
  GI50: 8.03 µM
  TGI: > 100 µM
TK-10 renal
  GI50: 11.7 µM
  TGI: 33 µM
UACC-62 melanoma
  GI50: 5.79 µM
  TGI: 84.5 µM

## N#CC1c2ccccc2C=CN1C(=O)CCCl (stereo unspecified)
HCC-2998 colon
  GI50: 16.9 µM
  TGI: 32 µM
HT29 colon
  GI50: 11.1 µM
  TGI: 26.2 µM
OVCAR-5 ovarian
  GI50: 10.3 µM
  TGI: 25.9 µM
SF-295 CNS
  GI50: 29.4 µM
  TGI: > 87.5 µM
SF-539 CNS
  GI50: 8.06 µM
  TGI: 22.3 µM
SK-MEL-5 melanoma
  GI50: 16.6 µM
  TGI: 30.6 µM
SN12C renal
  GI50: 15.6 µM
  TGI: 34.9 µM
T-47D breast
  GI50: 3.65 µM
  TGI: 17.1 µM
TK-10 renal
  GI50: 2.16 µM
  TGI: 6.02 µM
UACC-62 melanoma
  GI50: 14.9 µM
  TGI: 29.7 µM

## COc1ccc2c(N)ncc(C#Cc3cc(C(=O)Nc4ccc(CN5CCN(C)CC5)c(C(F)(F)F)c4)cnc3C)c2c1
HCC-2998 colon
  GI50: 1.42 µM
  TGI: 5.36 µM
HT29 colon
  GI50: 0.194 µM
  TGI: 0.876 µM
OVCAR-5 ovarian
  GI50: 1.33 µM
  TGI: 3.78 µM
SF-295 CNS
  GI50: 4.78 µM
  TGI: 16.7 µM
SF-539 CNS
  GI50: 0.597 µM
  TGI: 1.12 µM
SK-MEL-5 melanoma
  GI50: 1.86 µM
  TGI: 5.32 µM
SN12C renal
  GI50: 0.594 µM
  TGI: 1.52 µM
T-47D breast
  GI50: 13.5 µM
  TGI: 25.4 µM
TK-10 renal
  GI50: 0.821 µM
  TGI: 2.19 µM
UACC-62 melanoma
  GI50: 1.3 µM
  TGI: 5.92 µM

## COc1cc2c(N3CCN(C(=O)Nc4ccc(OC(C)C)cc4)CC3)ncnc2cc1OCCCN1CCCCC1
HCC-2998 colon
  GI50: 19.6 µM
  TGI: 44.3 µM
HT29 colon
  GI50: 6.59 µM
  TGI: 26.4 µM
OVCAR-5 ovarian
  GI50: 26.8 µM
  TGI: > 90.1 µM
SF-295 CNS
  GI50: 12.5 µM
  TGI: 27.9 µM
SF-539 CNS
  GI50: 6.43 µM
  TGI: 22.3 µM
SK-MEL-5 melanoma
  GI50: 13.2 µM
  TGI: 26 µM
SN12C renal
  GI50: 14.9 µM
  TGI: 88 µM
T-47D breast
  GI50: 16.6 µM
  TGI: 61.5 µM
TK-10 renal
  GI50: 38.9 µM
  TGI: > 100 µM
UACC-62 melanoma
  GI50: 15.8 µM
  TGI: 31 µM

## N#Cc1nc2c(S(=O)(=O)c3ccc(Cl)cc3)c(N)n(Nc3cccc(Cl)c3)c2nc1C#N
HCC-2998 colon
  GI50: 0.0161 µM
  TGI: > 100 µM
HT29 colon
  GI50: 0.0295 µM
OVCAR-5 ovarian
  GI50: 0.0219 µM and 0.0224 µM
  TGI: 0.106 µM and 0.175 µM
SF-295 CNS
  GI50: 0.0427 µM
  TGI: 0.276 µM
SF-539 CNS
  GI50: 0.0307 µM
  TGI: 0.179 µM
SK-MEL-5 melanoma
  GI50: 0.115 µM
  TGI: 0.657 µM
SN12C renal
  GI50: 0.033 µM
T-47D breast
  GI50: 0.0258 µM
TK-10 renal
  GI50: 0.0207 µM
UACC-62 melanoma
  GI50: 0.115 µM
  TGI: 0.336 µM

## c1ccc(-c2[nH]ncc2-c2ccnc(-c3ccc(OCCn4ccnc4)cc3)c2)nc1
HCC-2998 colon
  GI50: > 25 µM
  TGI: > 25 µM
HT29 colon
  GI50: > 25 µM
  TGI: > 25 µM
OVCAR-5 ovarian
  GI50: > 25 µM
  TGI: > 25 µM
SF-295 CNS
  GI50: > 25 µM
  TGI: > 25 µM
SF-539 CNS
  GI50: > 25 µM
  TGI: > 25 µM
SK-MEL-5 melanoma
  GI50: 8.1 µM
  TGI: > 25 µM
SN12C renal
  GI50: > 25 µM
  TGI: > 25 µM
T-47D breast
  GI50: 5.68 µM
  TGI: > 25 µM
TK-10 renal
  GI50: > 25 µM
  TGI: > 25 µM
UACC-62 melanoma
  GI50: > 25 µM
  TGI: > 25 µM

## CC1=C(C(=O)Nc2ccccc2)C(c2ccc(N(C)C)cc2)C(C(=O)Nc2ccccc2)=C(C)N1
HCC-2998 colon
  TGI: 23.4 µM
HT29 colon
  TGI: > 75.8 µM
OVCAR-5 ovarian
  TGI: 99 µM
SF-295 CNS
  TGI: 50.2 µM
SF-539 CNS
  TGI: > 100 µM
SK-MEL-5 melanoma
  TGI: 7.98 µM
SN12C renal
  TGI: > 100 µM
T-47D breast
  TGI: > 93.6 µM
TK-10 renal
  TGI: > 100 µM
UACC-62 melanoma
  TGI: 23.9 µM
